Values of other authors, collected in patent US20190192686A1, “TARGETED NANODROPLET EMULSIONS FOR TREATING CANCER” (The University of Louisville Research Foundation,, priority 2016, published 2019).

Target: plasma membrane nucleolin (Homo sapiens, UniProt P19338)
Parameters: key: ^1: Indicates a good plasma membrane nucleolin-binding GRO.; ^2: Indicates a nucleolin control (non-plasma membrane nucleolin binding)
Settings: superscript designation in Table 1

Chain of plasma membrane nucleolin (P19338 whole entry): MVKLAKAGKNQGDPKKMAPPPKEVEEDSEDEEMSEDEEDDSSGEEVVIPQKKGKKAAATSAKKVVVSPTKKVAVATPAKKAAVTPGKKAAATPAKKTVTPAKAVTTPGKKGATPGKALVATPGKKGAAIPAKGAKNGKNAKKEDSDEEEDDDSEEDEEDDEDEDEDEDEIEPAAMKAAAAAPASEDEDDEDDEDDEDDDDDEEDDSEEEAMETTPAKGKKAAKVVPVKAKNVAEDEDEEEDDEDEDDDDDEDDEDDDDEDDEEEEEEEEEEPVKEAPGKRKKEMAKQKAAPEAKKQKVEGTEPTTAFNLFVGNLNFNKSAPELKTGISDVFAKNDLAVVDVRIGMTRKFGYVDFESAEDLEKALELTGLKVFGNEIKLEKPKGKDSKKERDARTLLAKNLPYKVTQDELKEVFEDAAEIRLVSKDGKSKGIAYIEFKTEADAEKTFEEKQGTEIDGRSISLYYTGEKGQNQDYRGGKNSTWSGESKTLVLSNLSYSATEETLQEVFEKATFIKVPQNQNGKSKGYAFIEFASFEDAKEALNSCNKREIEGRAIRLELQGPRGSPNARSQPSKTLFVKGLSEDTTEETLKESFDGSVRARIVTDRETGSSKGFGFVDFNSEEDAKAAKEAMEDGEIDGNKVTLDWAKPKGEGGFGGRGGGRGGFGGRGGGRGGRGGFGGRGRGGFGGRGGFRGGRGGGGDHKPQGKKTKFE

Substance	plasma membrane nucleolin binding
GRO15B: ttgggggggg tgggt (TTGGGGGGGGTGGGT; listed as DNA, chemistry not fully specified)	GRO15B^2
GRO26B: ggtggtggtg gttgtggtgg tggtgg	GRO26B^1
GRO G: ggttggtgtg gttgg	GRO G^1
GRO H: ggggttttgg gg (DNA GGGGTTTTGGGG; listed as DNA, chemistry not fully specified)	GRO H^1
GRO I: gggttttggg (DNA GGGTTTTGGG; listed as DNA, chemistry not fully specified)	GRO I^1
GRO J: ggggttttgg ggttttgggg ttttgggg (DNA GGGGTTTTGGGGTTTTGGGGTTTTGGGG; listed as DNA, chemistry not fully specified)	GRO J^1
GRO K: ttggggttgg ggttggggtt gggg (DNA TTGGGGTTGGGGTTGGGGTTGGGG; listed as DNA, chemistry not fully specified)	GRO K^1
GRO M: ggttttggtt ttggttttgg ttttgg (GGTTTTGGTTTTGGTTTTGGTTTTGG; aptamer; listed as DNA, chemistry not fully specified)	GRO M^1
GRO N: tttcctcctc ctccttctcc tcctcctcc (TTTCCTCCTCCTCCTTCTCCTCCTCCTCC; listed as DNA, chemistry not fully specified)	GRO N^2
GRO O: cctcctcctc cttctcctcc tcctcc (CCTCCTCCTCCTTCTCCTCCTCCTCC; aptamer; listed as DNA, chemistry not fully specified)	GRO O^2
GRO P: tggggt	GRO P^2
GRO Q: gcatgct (GCATGCT; listed as DNA, chemistry not given here)	GRO Q^2
GRO R: gcggtttgcg g (GCGGTTTGCGG; listed as DNA, chemistry not given here)	GRO R^2
GRO S: tagg (TAGG; listed as DNA, chemistry not given here)	GRO S^2
GRO T: ggggttgggg tgtggggttg ggg (GGGGTTGGGGTGTGGGGTTGGGG; listed as DNA, chemistry not given here)	GRO T^2
